From patent US10654814B2, “Bicyclic hydroxamic acids useful as inhibitors of mammalian histone deacetylase activity” (KANCERA AB, priority 2015, dated 2020)
Like-named read-outs stand apart in the source and are kept apart here.

Legend:
[1] = tested on: multiple myeloma cell line OPM-2; test: Annexin V apoptosis assay (flow cytometry), OPM-2; format: cell-based; settings: 72 hours, relative to 0.2% DMSO
Excerpt: (§1) Method for Measurement of Apoptosis
(§2) The Annexin A5 (or Annexin V) affinity assay provides a method to quantify the number of cells undergoing apoptosis. The assay uses the protein annexin A5 conjugated to fluorescein (FITC Annexin V) and the fluorescent dye propidium iodide (PI) to label early apoptotic (annexin V positive, PI negative) and necrotic/dead cells (annexin V positive, PI positive) quantified by flow cytometry. The annexin A5 protein binds to membrane surfaces containing negatively charged phoshpolipids (phosphatidylserine) which are exposed by apoptotic and dead cells, but not by normal cells. PI binds to nucleic acids in cells which have completely lost the integrity of their plasma membrane, i.e. necrotic cells.
(§3) Standard Annexin V assay protocol was followed (see e.g. http://www.biolegend.com/pop_pdf.php?id=5161 and application references therein). 10,000 cells of each cell line were cultured in 400 μl of medium in 48 well plates. Compounds from 10 mM DMSO stock solutions were added to cells (DMSO content was 0.2%) and incubated for 48 or 72 hours followed by addition of FITC-Annexin V (BioLegend) and PI staining solution (BD Biosciences). The cells were analyzed by flow cytometry, at least 4,000 single cells were analyzed. Compounds were tested either individually at four different concentrations (1, 2.5, 5 and 10 μM) or in combination with 1 μM dexamethasone.
(§4) Annexin V assay results for one compound of the invention (Example 1) with and without 1 μM dexamethasone for the multiple myeloma cell lines OPM-2 and U266 are given in Table 6. In Table 6, the % apoptosis values with compound(s) present are relative to the absence of compounds (only 0.2% DMSO present).

[2] = tested on: PBMCs (peripheral blood mononuclear cells) from healthy donors; test: CellTiter-Blue cell viability assay, healthy PBMC; format: cell-based; settings: 72 hours of treatment
Procedure: (§5) Method for Measurement of Cell Viability
(§6) The CellTiter-Blue® Cell Viability Assay (Promega) provides a homogeneous, fluorometric method for estimating the number of viable cells present in multi-well plates. The assay uses the indicator dye resazurin to measure the metabolic capacity of cells. Viable cells retain the ability to reduce resazurin into resorufin, which is highly fluorescent.
(§7) Stock solutions (10 mM in DMSO) of compounds were serially diluted 1:2 in 11 concentrations. 50 nL/well (10 mM compound stock in DMSO) was acoustically dispensed in 384-well assay plates with an acoustic dispenser (EDC Biosystems ATS-100AV). Final starting concentration in the assay was 20 μM (0.2% DMSO) for test compounds. The following cell-lines (and origin) have been primarily used: PaCa2 (pancreatic), U266 (multiple myeloma), AMO-1 (plasmacytoma), and MDA-MB-231 (breast adenocarcinoma). PBMCs (peripheral blood mononuclear cells) from healthy donors were used as control cells. Cells were seeded in assay plates (384-well black/clear, Greiner #781091) pre-dispensed with compounds, 25 μL/well, and cultured for 72 hours. After 72 hours, Celltiter Blue reagent (Promega # G8081) was diluted 1:10 with PBS and then added to wells (5 μL/well). The plates were incubated for 2 hours following addition of reagent. The plates were read in an EnVision fluorescence reader (PerkinElmer) with Ex544 nm/Em590 nm. Results were calculated as % cell viability compared to background (cells treated with 0.2% DMSO).

HDAC8 = HDAC8 (Homo sapiens (Human), UniProt Q9BY41); test: HDAC8 in vitro enzymatic assay (fluorescence); format: biochemical; settings: Table 4 selectivity profiling
Procedure: (§8) Biological Tests Method for Measurement of Enzymatic Activity of HDACs Materials & Methods
(§9) All Examples were tested in HDAC1,2,3,6 and 8 in vitro enzymatic assays. The assay principle is well known (Hauser et al. 2009, Bradner et al. 2010) and all necessary reagents like enzymes, substrates, developer and reference compounds are commercially available (see e.g. BPS Biosciences http://www.bpsbioscience.com/). Stock solutions (10 mM in DMSO) of compounds were serially diluted 1:3 in 11 concentrations with a top concentration of 200 μM for HDAC1,2,3 and 2 μM for HDAC6 and HDAC8. The enzymatic reactions were conducted in a mixture containing assay buffer, bovine serum albumin, HDAC substrate, and a test compound. After enzymatic reaction, developer was added and after an additional incubation time, fluorescence intensity was measured at an excitation wavelength of 360 nm and an emission wavelength of 460 nm. All experiments were performed in duplicate.

HDAC3 = HDAC3 (Homo sapiens (Human), UniProt O15379); test: HDAC3 in vitro enzymatic assay (fluorescence); format: biochemical; settings: Table 4 selectivity profiling
Procedure: as §8, §9

[3] = tested on: U266 (multiple myeloma) cells; test: CellTiter-Blue cell viability assay, U266; format: cell-based; settings: Homo sapiens, U-266; 72 hours of treatment
Procedure: as §5, §6, §7

[4] = tested on: multiple myeloma cell line U266; test: Annexin V apoptosis assay (flow cytometry), U266; format: cell-based; settings: 72 hours, relative to 0.2% DMSO
Excerpt: as §1, §2, §3, §4

PaCa2 (pancreatic) cells = test: CellTiter-Blue cell viability assay, PaCa2; format: cell-based; settings: PaCa-2; 72 hours of treatment
Procedure: as §5, §6, §7

HDAC2 = HDAC2 (Homo sapiens (Human), UniProt Q92769); test: HDAC2 in vitro enzymatic assay (fluorescence); format: biochemical; settings: Table 4 selectivity profiling
Procedure: as §8, §9

[5] = tested on: MDA-MB-231 (breast adenocarcinoma) cells; test: CellTiter-Blue cell viability assay, MDA-MB-231; format: cell-based; settings: Homo sapiens, 72 hours of treatment
Procedure: as §5, §6, §7

HDAC1 = HDAC1 (Homo sapiens (Human), UniProt Q13547); test: HDAC1 in vitro enzymatic assay (fluorescence); format: biochemical; settings: Table 4 selectivity profiling
Procedure: as §8, §9

[6] = tested on: AMO-1 (plasmacytoma) cells; test: CellTiter-Blue cell viability assay, AMO-1; format: cell-based; settings: Homo sapiens, AMO1; 72 hours of treatment
Procedure: as §5, §6, §7

HDAC6 = HDAC6 (Homo sapiens (Human), UniProt Q9UBN7); test: HDAC6 in vitro enzymatic assay (fluorescence); format: biochemical
Method in brief: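 Fluorogenic HDAC substrate reactions contained assay buffer, BSA and compound, followed by developer. Fluorescence was read at ex 360/em 460 nm. Compounds were tested as 11-point 1:3 dilutions from a top of 200 μM for HDAC1, 2 and 3, and from 2 μM for HDAC6, in duplicate.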

Chain of HDAC6 (Q9UBN7 whole entry): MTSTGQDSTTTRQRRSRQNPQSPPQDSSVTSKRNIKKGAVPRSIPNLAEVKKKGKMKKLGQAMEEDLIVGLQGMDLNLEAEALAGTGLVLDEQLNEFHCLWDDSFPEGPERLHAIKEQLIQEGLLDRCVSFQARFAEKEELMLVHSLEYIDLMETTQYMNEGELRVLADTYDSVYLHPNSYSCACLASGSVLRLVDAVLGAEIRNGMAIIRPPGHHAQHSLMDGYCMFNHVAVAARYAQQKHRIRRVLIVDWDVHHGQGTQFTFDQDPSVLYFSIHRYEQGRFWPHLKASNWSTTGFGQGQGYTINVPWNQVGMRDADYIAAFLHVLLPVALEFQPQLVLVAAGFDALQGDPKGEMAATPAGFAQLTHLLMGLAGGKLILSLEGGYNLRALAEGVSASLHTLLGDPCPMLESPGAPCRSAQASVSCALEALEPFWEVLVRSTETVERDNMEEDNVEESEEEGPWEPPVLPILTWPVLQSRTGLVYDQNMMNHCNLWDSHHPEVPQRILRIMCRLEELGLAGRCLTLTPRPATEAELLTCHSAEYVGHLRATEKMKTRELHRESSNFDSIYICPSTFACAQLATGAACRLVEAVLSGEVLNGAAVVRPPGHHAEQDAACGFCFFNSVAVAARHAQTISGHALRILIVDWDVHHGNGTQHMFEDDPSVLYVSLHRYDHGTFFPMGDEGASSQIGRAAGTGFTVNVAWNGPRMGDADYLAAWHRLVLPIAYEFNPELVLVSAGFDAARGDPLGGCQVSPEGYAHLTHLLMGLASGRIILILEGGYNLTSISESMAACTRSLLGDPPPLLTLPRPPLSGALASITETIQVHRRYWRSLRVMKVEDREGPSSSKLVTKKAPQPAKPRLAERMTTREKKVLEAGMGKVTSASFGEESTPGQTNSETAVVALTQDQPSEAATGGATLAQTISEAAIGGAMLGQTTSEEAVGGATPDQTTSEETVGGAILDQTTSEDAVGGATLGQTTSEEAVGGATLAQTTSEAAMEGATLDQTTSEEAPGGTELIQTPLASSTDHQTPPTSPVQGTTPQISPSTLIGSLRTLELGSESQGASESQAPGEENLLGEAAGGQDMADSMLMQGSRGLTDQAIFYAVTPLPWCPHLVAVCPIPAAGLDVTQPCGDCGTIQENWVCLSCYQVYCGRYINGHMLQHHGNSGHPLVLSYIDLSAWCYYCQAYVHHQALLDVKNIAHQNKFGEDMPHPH
Chain of HDAC1 (Q13547 whole entry): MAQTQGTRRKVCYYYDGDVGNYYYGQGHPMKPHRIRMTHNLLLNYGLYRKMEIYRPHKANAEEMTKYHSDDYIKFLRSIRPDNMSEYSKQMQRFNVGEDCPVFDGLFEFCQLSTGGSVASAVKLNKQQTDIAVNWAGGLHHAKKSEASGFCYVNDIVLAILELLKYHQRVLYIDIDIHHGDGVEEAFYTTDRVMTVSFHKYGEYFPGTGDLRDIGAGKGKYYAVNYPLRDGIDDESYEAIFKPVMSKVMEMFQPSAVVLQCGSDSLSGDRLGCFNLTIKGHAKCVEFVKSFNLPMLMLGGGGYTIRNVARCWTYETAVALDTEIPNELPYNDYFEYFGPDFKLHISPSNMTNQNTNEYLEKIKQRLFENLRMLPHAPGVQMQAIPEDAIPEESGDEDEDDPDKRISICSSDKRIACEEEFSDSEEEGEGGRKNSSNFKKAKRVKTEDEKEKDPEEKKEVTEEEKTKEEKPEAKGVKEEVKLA
Chain of HDAC3 (O15379 whole entry): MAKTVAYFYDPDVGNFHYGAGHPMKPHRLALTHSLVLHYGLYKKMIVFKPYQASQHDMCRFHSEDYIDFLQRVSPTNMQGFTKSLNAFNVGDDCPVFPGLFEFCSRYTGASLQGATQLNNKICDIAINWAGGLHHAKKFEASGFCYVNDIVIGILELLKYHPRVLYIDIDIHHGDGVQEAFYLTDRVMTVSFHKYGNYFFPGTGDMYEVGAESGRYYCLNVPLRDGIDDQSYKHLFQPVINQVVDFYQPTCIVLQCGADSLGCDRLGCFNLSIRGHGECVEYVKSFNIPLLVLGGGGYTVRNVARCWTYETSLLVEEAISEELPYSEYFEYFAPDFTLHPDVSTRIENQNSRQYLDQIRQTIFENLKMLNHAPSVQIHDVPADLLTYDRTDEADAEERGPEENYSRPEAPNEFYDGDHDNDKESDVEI
Chain of HDAC3 (Q9Y618 395-489 partner): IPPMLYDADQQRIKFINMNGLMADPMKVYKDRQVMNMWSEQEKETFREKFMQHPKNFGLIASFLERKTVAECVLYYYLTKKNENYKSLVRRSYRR
Chain of HDAC2 (Q92769 whole entry): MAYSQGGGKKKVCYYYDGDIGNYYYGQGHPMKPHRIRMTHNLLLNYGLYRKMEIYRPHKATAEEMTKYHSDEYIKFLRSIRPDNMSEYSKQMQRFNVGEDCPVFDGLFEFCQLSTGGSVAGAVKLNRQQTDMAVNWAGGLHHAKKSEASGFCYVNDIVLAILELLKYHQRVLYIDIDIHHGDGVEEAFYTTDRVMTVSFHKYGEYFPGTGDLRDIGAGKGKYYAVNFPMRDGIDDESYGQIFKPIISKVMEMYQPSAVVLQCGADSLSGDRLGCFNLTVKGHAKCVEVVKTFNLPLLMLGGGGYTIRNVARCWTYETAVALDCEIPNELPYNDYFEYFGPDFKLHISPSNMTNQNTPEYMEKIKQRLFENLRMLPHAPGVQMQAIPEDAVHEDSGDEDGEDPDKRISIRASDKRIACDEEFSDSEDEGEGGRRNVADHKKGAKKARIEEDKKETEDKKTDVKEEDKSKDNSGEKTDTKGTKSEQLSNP
Chain of HDAC8 (Q9BY41 whole entry): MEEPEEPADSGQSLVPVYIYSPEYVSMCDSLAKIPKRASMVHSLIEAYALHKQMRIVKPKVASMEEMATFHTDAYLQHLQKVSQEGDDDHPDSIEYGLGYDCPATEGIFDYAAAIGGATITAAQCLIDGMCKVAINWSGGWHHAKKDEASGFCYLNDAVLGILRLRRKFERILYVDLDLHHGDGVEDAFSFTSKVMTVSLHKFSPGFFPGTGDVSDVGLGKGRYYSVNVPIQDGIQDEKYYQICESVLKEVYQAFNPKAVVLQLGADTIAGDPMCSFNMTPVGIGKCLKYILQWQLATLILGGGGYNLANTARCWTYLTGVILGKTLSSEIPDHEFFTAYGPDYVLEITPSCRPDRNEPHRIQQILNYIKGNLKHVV

## CC(C)c1ccc(-c2nc3cc(C(=O)NO)ccc3o2)cc1 [Example 1, N-Hydroxy-2-[4-(1-methylethyl)phenyl]-1,3-benzoxazole-5-carboxamide]
[1]; 1 μM Ex. 1 alone
  % apoptosis OPM-2: 3%
[1]; 2.5 μM Ex. 1 alone
  % apoptosis OPM-2: 37%
[1]; 5 μM Ex. 1 alone
  % apoptosis OPM-2: 38%
[1]; 10 μM Ex. 1 alone
  % apoptosis OPM-2: 59%
[2]
  IC50: > 20 µM
HDAC8
  IC50: 1200 nM
HDAC3
  IC50: 1700 nM
[3]
  IC50: 0.62 µM
[4]; 1 μM Ex. 1 alone
  % apoptosis U266: 30%
[4]; 2.5 μM Ex. 1 alone
  % apoptosis U266: 59%
[4]; 5 μM Ex. 1 alone
  % apoptosis U266: 43%
[4]; 10 μM Ex. 1 alone
  % apoptosis U266: 88%
PaCa2 (pancreatic) cells
  IC50: 0.98 µM
HDAC2
  IC50: 13000 nM
[5]
  IC50: 0.65 µM
HDAC1
  IC50: 4000 nM
[6]
  IC50: 0.39 µM
HDAC6; Table 3, read-out: IC50 (nM) for inhibition of HDAC6
  IC50: 26 nM
HDAC6; Table 4 selectivity profiling, read-out: IC50 (nM) HDAC6
  IC50: 26 nM

## C[C@@H]1C[C@H]2[C@@H]3CCC4=CC(=O)C=C[C@]4(C)[C@@]3(F)[C@@H](O)C[C@]2(C)[C@@]1(O)C(=O)CO [DEX, dexamethasone, reference compound]
[1]; 1 μM DEX alone
  % apoptosis OPM-2: 35%
[4]; 1 μM DEX alone
  % apoptosis U266: 42%
